Measured values from PubChem BioAssay (NCI).
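Five concentrations, 48 hours, 96-well plates. GI50 marks 50% less growth. TGI: total growth inhibition.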

Legend:
Test in all cases: growth of human tumour cells (NCI), 48 h
HCT-15 colon = system: HCT-15 colon
SK-MEL-5 melanoma = system: SK-MEL-5 melanoma
UACC-257 melanoma = system: UACC-257 melanoma
UO-31 renal = system: UO-31 renal
TK-10 renal = system: TK-10 renal
HCC-2998 colon = system: HCC-2998 colon
CAKI-1 renal = system: CAKI-1 renal
HT29 colon = system: HT29 colon
EKVX NSCLC = system: EKVX NSCLC
LOX IMVI melanoma = system: LOX IMVI melanoma

| SMILES | TGI (HCT-15 colon) [µM] | TGI (SK-MEL-5 melanoma) [µM] | TGI (UACC-257 melanoma) [µM] | TGI (UO-31 renal) [µM] | TGI (TK-10 renal) [µM] | TGI (HCC-2998 colon) [µM] | TGI (CAKI-1 renal) [µM] | TGI (HT29 colon) [µM] | TGI (EKVX NSCLC) [µM] | TGI (LOX IMVI melanoma) [µM] | GI50 (HCT-15 colon) [µM] | GI50 (SK-MEL-5 melanoma) [µM] | GI50 (UACC-257 melanoma) [µM] | GI50 (UO-31 renal) [µM] | GI50 (TK-10 renal) [µM] | GI50 (HT29 colon) [µM] | GI50 (EKVX NSCLC) [µM] | GI50 (LOX IMVI melanoma) [µM] | GI50 (CAKI-1 renal) [µM] | GI50 (HCC-2998 colon) [µM] |
| --- | --- | --- | --- | --- | --- | --- | --- | --- | --- | --- | --- | --- | --- | --- | --- | --- | --- | --- | --- | --- |
| O=C(c1ccccc1)C1CCCCN1C(=O)c1ccccc1 (stereo not given) | > 100 | > 100 | > 100 | > 100 | > 100 | > 100 | > 100 |  |  |  |  |  |  |  |  |  |  |  |  |  |
| CS(=O)(=O)OCCN1CCN(C(=O)c2cccc3c(Nc4ccc(S(=O)(=O)N=C(N)N)cc4)c4ccccc4nc23)CC1 | > 100 | > 100 | > 100 | > 100 | > 100 | > 100 | > 100 | > 100 |  |  |  |  |  |  |  |  |  |  |  |  |
| COC[C@@H](N=CN1CCc2cc(OC)c(OC)cc2[C@@H]1C)C(C)(C)C | > 100 | > 100 | > 100 | > 100 | > 100 |  | > 100 | > 100 | > 100 |  |  |  |  |  |  |  |  |  |  |  |
| CC1(C)C(=O)C(C)(C)C1=NN | > 100 | > 100 | > 100 | > 100 | > 100 | > 100 | > 100 | > 100 |  | > 100 |  |  |  |  |  |  |  |  |  |  |
| Cc1ccc(-c2cc(-c3ccco3)c(C#N)c(=O)[nH]2)cc1 | > 100 | > 100 | > 100 | > 100 | > 100 | > 100 |  | > 100 | > 100 | > 100 |  |  |  |  |  |  |  |  |  |  |
| CCOC(=O)C1=C(C(=O)c2ccc(C)cc2)C(c2cccc([N+](=O)[O-])c2)C(C(=O)c2ccc(C)cc2)=C(C(=O)OCC)N1 | 6.13 | 33.1 | 41.4 | 29.5 | 43.2 |  | 43.5 | 28.7 | 47.1 | 31.4 |  |  |  |  |  |  |  |  |  |  |
| CN(C)c1ccc([O-])cc1.CN(C)c1ccc([O-])cc1.CN(C)c1ccc([O-])cc1.CN(C)c1ccc([O-])cc1.[Ti+4] | > 100 | > 100 | > 100 | > 100 | > 100 |  | > 100 | > 100 | > 100 | > 100 | > 100 | 51.5 | > 100 | > 100 | > 100 | > 100 | > 100 | 76.9 | > 100 |  |
| O=C(O)C1C2CCC(O2)C1C(=O)N1CCCCC1 (stereo not given) | 26.1 | 29.7 | 32.4 | 46 | 8.42 | 11.9 |  | 15.1 | 29.2 | 23.3 |  |  |  |  |  |  |  |  |  |  |
| O=Nc1c(-c2c(O)[nH]c3ccc([N+](=O)[O-])cc23)[nH]c2ccc(O)cc12 | > 100 | 0.414 | > 83.9 |  | > 100 | > 100 | > 100 | > 100 |  | 0.531 | 0.376 | 0.189 | 0.647 |  | 2.24 | 12.4 |  | 0.171 | 0.332 | 0.836 |
| COC(=O)C(C(=O)C(=O)Nc1ccc(C(F)(F)F)cc1[N+](=O)[O-])c1csc(-n2nc(-c3ccccc3)cc2-c2ccccc2)n1 (stereo not given) | > 100 |  | > 100 | > 100 | > 100 | > 100 | > 100 | > 100 |  | > 100 |  |  |  |  |  |  |  |  |  |  |
| CCN(CC)CCNc1ccc([N+](=O)[O-])c2sc3ccccc3c(=O)c12 | 7.59 | 2.9 | 3.12 | 1.66 | 2.24 |  |  | 1.59 | 2.53 | 1.79 | 1.7 | 1.53 | 1.37 | 0.284 | 0.624 | 0.392 | 0.692 | 0.421 |  |  |
| CCCCS(=O)CCC(N)C(=O)O (stereo not given) | > 100 | > 100 | > 100 | > 100 | > 100 | > 100 | > 100 | > 100 | > 100 |  |  |  |  |  |  |  |  |  |  |  |
| CCCCc1c2c(nc3c1CCc1cc4cc5c(nc4nc1-3)-c1nc3c(c(CCCC)c1CC5)CCCC3)CCCC2 | > 100 |  | > 100 | > 100 | > 100 | > 100 |  | 31.5 | > 100 | > 100 |  |  |  |  |  |  |  |  |  |  |
| CC1CC#CCOC(=O)CCCC1=O (stereo not given) |  | > 100 |  |  | > 100 | > 100 |  | > 100 |  | > 100 |  |  |  |  |  |  |  |  |  |  |
| CCCc1c(CC)c(=N)c2ccccc2n1C | > 100 | > 100 | > 100 | > 100 | > 100 | > 100 | > 100 | > 100 |  | > 100 | > 100 | 24.9 | 47.3 | > 100 | > 100 | > 100 |  | > 100 | > 100 | > 100 |
| NCCCOCC(=O)O | > 100 | > 100 | > 100 | > 100 | > 100 | > 100 |  | > 100 | > 100 |  |  |  |  |  |  |  |  |  |  |  |
| CC(=O)N[C@@H]1C(O)CN2C(=O)C(=O)O[C@H](C(O)CO)[C@@H]12 (stereo not given in full) |  |  | > 100 | > 100 | > 100 | > 100 |  | > 100 | > 100 | > 100 |  |  |  |  |  |  |  |  |  |  |
| O=C(Nc1ccc(Cl)cc1Cl)C(=O)C(C(=O)c1ccc2ccccc2c1)C1OC(=O)c2ccccc21 (stereo not given) | 42.3 | 26.1 | 65.3 | 27 |  |  | 83 | 33.1 | 35.9 | 24.9 |  |  |  |  |  |  |  |  |  |  |
| O=C(O)[C@@H]1[C@H](C(=O)O)[C@H](C(=O)O)C[C@@H]1C(=O)O | > 100 | > 100 | > 100 | > 100 | > 100 |  | > 100 | > 100 | > 100 | > 100 |  |  |  |  |  |  |  |  |  |  |
| CC1CC2CC(=O)CC3(C1)C2CCCN3CCCO (stereo not given) |  | > 100 | > 100 | > 100 | > 100 |  | > 100 | > 100 | > 100 | > 100 |  |  |  |  |  |  |  |  |  |  |
| O=C(c1ccc2ccccc2c1)c1c(C(F)(F)F)n([O-])c2cc(F)c(F)cc2[n+]1=O | 4.37 | 18.3 | 6.45 | 2.68 | 3.41 | 7.65 | 3.97 | 5.29 | 6.43 |  | 1.76 | 4.84 | 2.53 | 1.02 | 1.76 | 2.34 | 2.46 |  | 1.82 | 2.42 |
| CC(=O)Nc1ccc(C(=O)NN2C(=O)C(Cl)C2c2ccc([N+](=O)[O-])cc2)cc1 (stereo not given) | > 100 | > 100 | > 100 | > 100 | > 100 |  | > 100 | > 100 | > 100 | > 100 |  |  |  |  |  |  |  |  |  |  |
| COc1ccc2c(c1)/C(=C\c1cccnc1)C(=O)N2 | 39.5 | 45.7 | 31.8 | > 100 | 44.6 |  | 9.05 |  | 25.2 | 25.3 | 14.4 | 16.5 | 14.8 | 25.9 | 18.5 |  | 3.79 | 8.83 | 3.68 |  |
| CC12N=NN(c3ccc([N+](=O)[O-])cc3)C1(O)c1ccccc1C2=O (stereo not given) | > 100 | > 100 | > 100 | > 100 | > 100 | > 100 |  | > 100 | > 100 | > 100 |  |  |  |  |  |  |  |  |  |  |
| CCc1n(Cc2ccc3ccccc3n2)cc[n+]1Cc1ccc2ccccc2n1 | > 100 | 1.02 | 0.695 | > 100 | 26.3 | 14.4 |  | 12 | 41.5 | 13.2 | 65.7 | 0.0653 | 0.0796 | 21.2 | 5.5 | 0.263 | 0.343 | 0.596 |  | 0.227 |
| Cn1nc(-c2ccccc2)c(C(=O)/C=C/c2ccc(F)cc2)c(N2CCCCC2)c1=O | > 100 | 19.7 |  | 19.1 | 69.9 |  | 27.3 | 20.2 | 72.3 | 15.4 |  |  |  |  |  |  |  |  |  |  |
| Cc1ccc(S(=O)(=O)NCCNC2=CC(=O)c3nc4ccccc4c4ccnc2c34)cc1 | 48.1 | 33.9 | 54.3 | > 100 | 40.1 |  | 48.3 | 79.1 | 89 | 42.4 | 16.2 | 14.6 | 19.5 | 24.3 | 20.2 | 32.5 | 32.3 | 16.6 | 20.5 |  |
| O=C(/C=C/c1ccccc1)CC1OC(=O)c2ccccc21 (stereo not given) | > 100 | > 100 | > 100 | > 100 | > 100 | > 100 |  | > 100 | > 100 | > 100 |  |  |  |  |  |  |  |  |  |  |
| O=C(Nc1cccc([N+](=O)[O-])c1)C(=O)C(C(=O)c1ccccc1-c1ccccc1)C1OC(=O)c2ccccc21 (stereo not given) |  | 30.7 | 93.4 | 51.8 | 61.5 | 30.5 |  | > 100 | 59.1 | 36.6 |  |  |  |  |  |  |  |  |  |  |
